Reference: ChEMBL document CHEMBL3991601, “The target landscape of clinical kinase drugs” (Science, 2017)
Where a name gives a salt, the structure may show the parent alone. Activity calls are given as the source filed them.

Experiments:
[1] = molecular target: T1, Very long-chain specific acyl-CoA dehydrogenase, mitochondrial (Homo sapiens, UniProt P49748)
T1 sequence (P49748 whole entry): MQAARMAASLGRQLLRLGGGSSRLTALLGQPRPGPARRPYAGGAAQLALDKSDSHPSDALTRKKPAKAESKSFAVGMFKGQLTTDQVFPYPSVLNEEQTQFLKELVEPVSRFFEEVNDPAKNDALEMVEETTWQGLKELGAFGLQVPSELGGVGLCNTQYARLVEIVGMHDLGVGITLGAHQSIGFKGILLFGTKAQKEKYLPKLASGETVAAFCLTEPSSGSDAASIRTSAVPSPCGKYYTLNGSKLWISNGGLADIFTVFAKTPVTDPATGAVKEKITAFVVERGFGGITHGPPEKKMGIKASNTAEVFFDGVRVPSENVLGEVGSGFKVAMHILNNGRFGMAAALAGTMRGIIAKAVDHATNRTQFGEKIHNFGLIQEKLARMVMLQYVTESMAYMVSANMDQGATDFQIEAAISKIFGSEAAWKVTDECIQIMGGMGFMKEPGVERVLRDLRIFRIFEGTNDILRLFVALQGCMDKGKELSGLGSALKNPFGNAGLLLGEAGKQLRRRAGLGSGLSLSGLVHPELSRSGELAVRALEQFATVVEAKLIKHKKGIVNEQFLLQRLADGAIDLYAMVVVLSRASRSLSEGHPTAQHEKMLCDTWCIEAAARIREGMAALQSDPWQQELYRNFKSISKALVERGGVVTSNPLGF

[2] = molecular target: T2, Serine/threonine-protein kinase A-Raf (Homo sapiens, UniProt P10398)
T2 sequence (P10398 whole entry): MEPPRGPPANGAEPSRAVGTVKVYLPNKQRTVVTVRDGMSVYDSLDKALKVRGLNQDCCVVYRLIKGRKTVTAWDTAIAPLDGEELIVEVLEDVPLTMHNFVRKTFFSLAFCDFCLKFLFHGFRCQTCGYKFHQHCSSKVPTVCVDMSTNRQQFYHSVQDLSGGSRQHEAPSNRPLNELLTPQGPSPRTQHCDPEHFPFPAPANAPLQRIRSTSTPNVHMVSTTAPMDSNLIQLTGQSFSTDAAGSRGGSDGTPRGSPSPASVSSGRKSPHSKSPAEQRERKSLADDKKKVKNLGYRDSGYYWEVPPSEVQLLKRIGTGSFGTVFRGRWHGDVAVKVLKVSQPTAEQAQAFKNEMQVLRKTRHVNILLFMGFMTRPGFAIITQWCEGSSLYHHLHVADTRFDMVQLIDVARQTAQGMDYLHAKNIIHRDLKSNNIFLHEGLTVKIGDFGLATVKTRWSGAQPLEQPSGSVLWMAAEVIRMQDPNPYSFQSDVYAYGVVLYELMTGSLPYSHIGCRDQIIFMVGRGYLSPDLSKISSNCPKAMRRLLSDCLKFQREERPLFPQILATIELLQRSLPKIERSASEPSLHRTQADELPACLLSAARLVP

[3] = molecular target: Calcium/calmodulin-dependent protein kinase type II subunit gamma (Homo sapiens, UniProt Q13555)
Sequence of Calcium/calmodulin-dependent protein kinase type II subunit gamma (Q13555 whole entry): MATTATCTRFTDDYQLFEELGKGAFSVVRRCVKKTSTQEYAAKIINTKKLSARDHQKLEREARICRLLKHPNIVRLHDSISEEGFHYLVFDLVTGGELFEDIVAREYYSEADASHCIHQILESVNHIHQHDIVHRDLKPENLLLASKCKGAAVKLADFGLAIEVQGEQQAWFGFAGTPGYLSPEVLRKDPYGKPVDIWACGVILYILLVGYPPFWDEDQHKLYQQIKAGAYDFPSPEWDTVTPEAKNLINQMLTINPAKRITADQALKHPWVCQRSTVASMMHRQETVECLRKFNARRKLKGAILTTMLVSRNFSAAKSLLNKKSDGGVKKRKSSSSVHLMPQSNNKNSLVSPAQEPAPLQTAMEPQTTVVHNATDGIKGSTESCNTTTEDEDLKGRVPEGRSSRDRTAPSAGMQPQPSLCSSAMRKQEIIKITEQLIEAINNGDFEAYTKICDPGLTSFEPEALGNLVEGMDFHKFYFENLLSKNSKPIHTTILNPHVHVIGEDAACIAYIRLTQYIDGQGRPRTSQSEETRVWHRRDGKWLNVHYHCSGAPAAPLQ

[4] = molecular target: Cyclin-dependent kinase 5 (Homo sapiens, UniProt Q00535)
Sequence of Cyclin-dependent kinase 5 (Q00535 whole entry): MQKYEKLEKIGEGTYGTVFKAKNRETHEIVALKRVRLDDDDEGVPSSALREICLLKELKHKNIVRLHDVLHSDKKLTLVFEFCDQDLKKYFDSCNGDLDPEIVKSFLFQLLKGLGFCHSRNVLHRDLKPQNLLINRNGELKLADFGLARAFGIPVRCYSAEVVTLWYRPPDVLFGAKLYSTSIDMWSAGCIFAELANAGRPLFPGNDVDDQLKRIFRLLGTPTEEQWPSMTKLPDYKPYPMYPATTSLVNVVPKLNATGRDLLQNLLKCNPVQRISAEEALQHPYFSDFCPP

[5] = molecular target: Serine/threonine-protein kinase/endoribonuclease IRE2 (Homo sapiens, UniProt Q76MJ5)
Sequence of Serine/threonine-protein kinase/endoribonuclease IRE2 (Q76MJ5 whole entry): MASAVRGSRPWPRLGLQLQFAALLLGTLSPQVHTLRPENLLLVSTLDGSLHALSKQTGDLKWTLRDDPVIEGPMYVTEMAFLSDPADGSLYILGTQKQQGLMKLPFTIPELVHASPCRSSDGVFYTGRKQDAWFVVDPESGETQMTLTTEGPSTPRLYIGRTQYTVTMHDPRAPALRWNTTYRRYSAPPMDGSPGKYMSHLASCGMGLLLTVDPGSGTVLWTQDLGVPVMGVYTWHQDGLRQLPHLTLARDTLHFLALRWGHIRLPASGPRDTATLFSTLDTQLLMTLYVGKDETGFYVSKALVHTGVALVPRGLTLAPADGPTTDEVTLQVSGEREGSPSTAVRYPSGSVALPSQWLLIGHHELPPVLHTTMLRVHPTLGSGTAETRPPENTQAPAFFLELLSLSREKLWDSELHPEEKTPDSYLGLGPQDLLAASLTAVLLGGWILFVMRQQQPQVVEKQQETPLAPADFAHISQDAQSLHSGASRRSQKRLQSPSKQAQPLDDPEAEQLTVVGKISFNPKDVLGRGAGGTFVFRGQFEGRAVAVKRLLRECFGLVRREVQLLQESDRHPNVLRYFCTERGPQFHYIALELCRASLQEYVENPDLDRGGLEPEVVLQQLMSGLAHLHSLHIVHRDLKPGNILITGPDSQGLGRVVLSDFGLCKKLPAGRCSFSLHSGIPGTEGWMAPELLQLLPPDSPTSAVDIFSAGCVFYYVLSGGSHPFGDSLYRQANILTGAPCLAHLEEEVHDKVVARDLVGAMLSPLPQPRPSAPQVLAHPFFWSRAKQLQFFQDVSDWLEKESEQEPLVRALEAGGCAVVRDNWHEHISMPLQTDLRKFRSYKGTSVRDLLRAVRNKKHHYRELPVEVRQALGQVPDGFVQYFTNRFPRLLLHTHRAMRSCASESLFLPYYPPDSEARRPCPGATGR

[6] = molecular target: T3, Scaffold protein ILK (Homo sapiens, UniProt Q13418)
T3 sequence (Q13418 whole entry): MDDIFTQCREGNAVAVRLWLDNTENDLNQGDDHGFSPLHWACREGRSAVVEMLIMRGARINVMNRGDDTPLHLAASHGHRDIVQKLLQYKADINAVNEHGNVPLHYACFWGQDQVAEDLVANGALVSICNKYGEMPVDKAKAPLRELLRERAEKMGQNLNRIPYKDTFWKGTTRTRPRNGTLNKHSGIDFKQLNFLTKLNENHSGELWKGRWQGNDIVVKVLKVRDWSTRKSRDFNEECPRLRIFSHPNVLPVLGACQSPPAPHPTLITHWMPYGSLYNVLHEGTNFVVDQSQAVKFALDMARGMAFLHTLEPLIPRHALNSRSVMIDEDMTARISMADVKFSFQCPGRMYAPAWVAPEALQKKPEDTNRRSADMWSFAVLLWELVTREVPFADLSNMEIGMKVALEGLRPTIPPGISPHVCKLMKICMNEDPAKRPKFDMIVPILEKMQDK

[7] = molecular target: Mitogen-activated protein kinase kinase kinase 1 (Homo sapiens, UniProt Q13233)
Sequence of Mitogen-activated protein kinase kinase kinase 1 (Q13233 whole entry): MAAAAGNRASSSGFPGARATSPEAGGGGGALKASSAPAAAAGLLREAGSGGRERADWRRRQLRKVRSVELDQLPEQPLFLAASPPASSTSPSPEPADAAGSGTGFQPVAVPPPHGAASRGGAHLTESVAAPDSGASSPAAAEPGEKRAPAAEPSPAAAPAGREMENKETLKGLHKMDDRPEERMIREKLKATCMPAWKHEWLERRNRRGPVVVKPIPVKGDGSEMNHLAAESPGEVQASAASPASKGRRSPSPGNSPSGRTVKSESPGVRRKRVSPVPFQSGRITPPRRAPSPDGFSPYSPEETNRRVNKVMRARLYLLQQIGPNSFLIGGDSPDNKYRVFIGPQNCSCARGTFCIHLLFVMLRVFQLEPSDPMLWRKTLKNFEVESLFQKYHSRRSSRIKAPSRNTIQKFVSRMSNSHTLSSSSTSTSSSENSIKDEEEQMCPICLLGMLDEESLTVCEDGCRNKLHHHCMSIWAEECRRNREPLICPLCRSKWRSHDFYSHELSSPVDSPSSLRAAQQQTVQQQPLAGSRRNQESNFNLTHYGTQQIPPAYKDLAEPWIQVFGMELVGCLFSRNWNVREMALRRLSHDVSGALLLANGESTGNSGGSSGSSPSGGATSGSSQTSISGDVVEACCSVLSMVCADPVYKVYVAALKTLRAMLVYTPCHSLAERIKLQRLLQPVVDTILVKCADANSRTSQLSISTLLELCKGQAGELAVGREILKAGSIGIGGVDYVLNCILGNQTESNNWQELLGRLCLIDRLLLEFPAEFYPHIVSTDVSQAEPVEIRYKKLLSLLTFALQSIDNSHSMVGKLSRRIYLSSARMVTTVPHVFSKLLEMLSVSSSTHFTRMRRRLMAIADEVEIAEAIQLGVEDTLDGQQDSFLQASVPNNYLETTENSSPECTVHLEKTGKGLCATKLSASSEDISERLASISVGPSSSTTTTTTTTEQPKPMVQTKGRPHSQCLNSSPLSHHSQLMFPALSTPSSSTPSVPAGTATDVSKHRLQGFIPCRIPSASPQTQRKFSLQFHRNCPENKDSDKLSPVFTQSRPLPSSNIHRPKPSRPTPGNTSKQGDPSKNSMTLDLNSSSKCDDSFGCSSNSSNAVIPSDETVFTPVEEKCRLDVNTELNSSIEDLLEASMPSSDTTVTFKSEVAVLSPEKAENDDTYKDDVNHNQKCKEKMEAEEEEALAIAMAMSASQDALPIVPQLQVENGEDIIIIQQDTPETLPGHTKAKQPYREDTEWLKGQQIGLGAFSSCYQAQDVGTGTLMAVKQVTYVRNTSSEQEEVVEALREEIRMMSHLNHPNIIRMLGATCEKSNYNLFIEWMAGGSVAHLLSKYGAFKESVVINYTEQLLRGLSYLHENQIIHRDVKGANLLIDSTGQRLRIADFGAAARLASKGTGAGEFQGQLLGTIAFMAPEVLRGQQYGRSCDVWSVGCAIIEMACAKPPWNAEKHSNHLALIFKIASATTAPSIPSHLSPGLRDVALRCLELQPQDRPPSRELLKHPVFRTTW

[8] = molecular target: T4, Serine/threonine-protein kinase Nek3 (Homo sapiens, UniProt P51956)
T4 sequence (P51956 whole entry): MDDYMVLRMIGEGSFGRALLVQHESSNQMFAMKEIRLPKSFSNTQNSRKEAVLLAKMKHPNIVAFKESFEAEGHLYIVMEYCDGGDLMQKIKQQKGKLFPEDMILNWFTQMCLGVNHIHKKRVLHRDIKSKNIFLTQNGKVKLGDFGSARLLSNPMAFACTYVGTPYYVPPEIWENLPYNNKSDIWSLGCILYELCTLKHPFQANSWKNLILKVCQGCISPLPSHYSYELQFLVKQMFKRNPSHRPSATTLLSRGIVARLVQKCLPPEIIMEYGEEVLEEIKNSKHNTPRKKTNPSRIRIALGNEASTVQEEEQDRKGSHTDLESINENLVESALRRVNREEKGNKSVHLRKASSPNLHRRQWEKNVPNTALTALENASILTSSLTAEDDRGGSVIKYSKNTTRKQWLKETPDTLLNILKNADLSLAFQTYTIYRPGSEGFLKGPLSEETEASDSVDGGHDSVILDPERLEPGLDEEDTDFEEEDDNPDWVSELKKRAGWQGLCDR

[9] = molecular target: T5, Adenine phosphoribosyltransferase (Homo sapiens, UniProt P07741)
T5 sequence (P07741 whole entry): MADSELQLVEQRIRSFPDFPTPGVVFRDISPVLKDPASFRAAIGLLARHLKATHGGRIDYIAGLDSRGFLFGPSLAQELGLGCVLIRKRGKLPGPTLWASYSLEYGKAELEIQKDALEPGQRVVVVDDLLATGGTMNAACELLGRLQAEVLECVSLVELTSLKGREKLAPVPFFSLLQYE
Note: in the data inactive means no Kd found up to 30 µM.

In the case of `Nc1ncnc2c1c(-c1cccc(OCc3ccccc3)c1)cn2[C@H]1C[C@@H](CN2CCC2)C1` [AEW-541], the Kd [1] is reported as > 30 µM (inactive), the Kd [2] is reported as > 30 µM (inactive) and the Kd [3] is reported as > 30 µM (inactive). The Kd [4] was > 30 µM (inactive), the Kd [5] was > 30 µM (inactive) and the Kd [6] was > 30 µM (inactive). For the same molecule, the Kd [7] was > 30 µM (inactive) and the Kd [8] was > 30 µM (inactive).

For `C=CC(=O)Nc1cc2c(Nc3ccc(F)c(Cl)c3)ncnc2cc1C#CC(C)(C)N1CCN(C)CC1` [AV-412 FREE BASE], the Kd [1] was > 30 µM (inactive), the Kd [2] was > 30 µM (inactive) and the Kd [3] was > 30 µM (inactive). The Kd [4] was > 30 µM (inactive), the Kd [5] was > 30 µM (inactive) and the Kd [6] was > 30 µM (inactive). For the same molecule, the Kd [7] was 7.96 µM (active) and the Kd [8] was > 30 µM (inactive).

In the case of `CNC(=O)c1ccccc1Sc1ccc2c(/C=C/c3ccccn3)n[nH]c2c1` [AXITINIB], the Kd [1] is reported as > 30 µM (inactive), the Kd [9] is reported as > 30 µM (inactive) and the Kd [2] is reported as > 30 µM (inactive). For the same molecule, the Kd [5] was > 30 µM (inactive) and the Kd [6] was > 30 µM (inactive).

In the case of `CCS(=O)(=O)N1CCN(c2ccc(Nc3ncc(C(N)=O)c(NC4CC4)n3)cc2)CC1` [Cerdulatinib Hydrochloride], the Kd [1] is reported as > 30 µM (inactive), the Kd [2] is reported as > 30 µM (inactive) and the Kd [3] is reported as > 30 µM (inactive). For the same molecule, the Kd [4] was > 30 µM (inactive), the Kd [5] was > 30 µM (inactive) and the Kd [6] was > 30 µM (inactive). The Kd [7] was > 30 µM (inactive) and the Kd [8] was 1.1 µM (active).

`Cc1cccc(-c2nn3c(c2-c2ccnc4ccc(C(N)=O)cc24)CCC3)n1` [GALUNISERTIB] was tested, and the Kd [1] was > 30 µM (inactive), the Kd [2] was > 30 µM (inactive) and the Kd [3] was > 30 µM (inactive). For the same molecule, the Kd [4] was > 30 µM (inactive), the Kd [5] was > 30 µM (inactive) and the Kd [6] was > 30 µM (inactive). The Kd [7] was > 30 µM (inactive) and the Kd [8] was > 30 µM (inactive).

With `CCn1cc(-c2ccnc3[nH]c(-c4cccc(CN(C)C)c4)cc23)c(-c2ccc(NC(=O)N(C)C)cc2)n1` [GSK-1070916] the Kd [1] was > 30 µM (inactive), the Kd [2] was > 30 µM (inactive) and the Kd [3] was > 30 µM (inactive). For the same molecule, the Kd [4] was > 30 µM (inactive), the Kd [5] was > 30 µM (inactive) and the Kd [6] was > 30 µM (inactive). For the same molecule, the Kd [7] was > 30 µM (inactive) and the Kd [8] was > 30 µM (inactive).

For `O=C(Nc1cc(C(F)(F)F)cc(C(F)(F)F)c1)c1cc(Cl)ccc1O` [IMD-0354], the Kd [1] was > 30 µM (inactive), the Kd [2] was > 30 µM (inactive) and the Kd [3] was > 30 µM (inactive). The Kd [5] was > 30 µM (inactive), the Kd [6] was > 30 µM (inactive) and the Kd [7] was > 30 µM (inactive). For the same molecule, the Kd [8] was > 30 µM (inactive).

For `CNC(=O)c1nn(C)c2c1C(C)(C)Cc1cnc(Nc3ccc(N4CCN(C)CC4)cc3)nc1-2` [MILCICLIB], the Kd [1] was > 30 µM (inactive), the Kd [2] was > 30 µM (inactive) and the Kd [3] was > 30 µM (inactive). For the same molecule, the Kd [5] was > 30 µM (inactive), the Kd [6] was > 30 µM (inactive) and the Kd [7] was > 30 µM (inactive).

For `NC1(c2ccc(-c3nc4ccn5c(=O)[nH]nc5c4cc3-c3ccccc3)cc2)CCC1` [MK-2206], the Kd [1] was > 30 µM (inactive), the Kd [2] was > 30 µM (inactive) and the Kd [3] was > 30 µM (inactive). For the same molecule, the Kd [4] was > 30 µM (inactive), the Kd [5] was > 30 µM (inactive) and the Kd [6] was > 30 µM (inactive). The Kd [7] was > 30 µM (inactive) and the Kd [8] was > 30 µM (inactive).
